Measurements reported in ChEMBL document CHEMBL2034935, “Discovery of a Novel Series of CRTH2 (DP2) Receptor Antagonists Devoid of Carboxylic Acids” (ACS Med Chem Lett, 2011).
Activity calls are given as the source filed them. No cut-off for these calls is given here.

Experiments:
[1] = molecular target: T1, Prostaglandin D2 receptor 2 (Homo sapiens, UniProt Q9Y5Y4); test: Displacement of [3HPGD2 from human CRTH2 receptor expressed in CHO cell membrane after 90 mins by scintillation proximity assay; format: cell membranes
T1 sequence (Q9Y5Y4 whole entry): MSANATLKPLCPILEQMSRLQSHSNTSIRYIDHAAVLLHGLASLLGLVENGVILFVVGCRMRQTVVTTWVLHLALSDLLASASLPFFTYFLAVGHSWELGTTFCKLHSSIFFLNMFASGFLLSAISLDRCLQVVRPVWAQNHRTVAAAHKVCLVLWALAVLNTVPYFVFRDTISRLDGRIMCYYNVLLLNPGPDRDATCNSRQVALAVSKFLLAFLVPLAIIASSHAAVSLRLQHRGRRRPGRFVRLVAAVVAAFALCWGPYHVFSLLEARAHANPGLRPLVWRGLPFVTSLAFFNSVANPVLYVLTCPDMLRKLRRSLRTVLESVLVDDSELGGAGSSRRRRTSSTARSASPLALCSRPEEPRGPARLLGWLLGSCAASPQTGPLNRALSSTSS

[2] = molecular target: T2, Prostaglandin D2 receptor 2 (Homo sapiens) (UniProt Q9Y5Y4); test: Agonist activity at human CRTH2 receptor expressed in CHO cell membrane assessed as induction of [35S]GTPgammaS binding at 20 uM after 30 mins by microbeta scintillation counting relative to PGD2; format: functional, cell membranes
T2 sequence (whole entry): T1 sequence (Q9Y5Y4 whole entry)

[3] = molecular target: T1, Prostaglandin D2 receptor 2; test: Antagonist activity at human CRTH2 receptor expressed in CHO cell membrane assessed as inhibition of PGD2-induced [35S]GTPgammaS binding after 30 mins by microbeta scintillation counting; format: functional, cell membranes
[4] = molecular target: T2, Prostaglandin D2 receptor 2 (Homo sapiens); test: Antagonist activity at human CRTH2 receptor expressed in CHO cell membrane assessed as inhibition of PGD2-induced [35S]GTPgammaS binding at 2 uM after 30 mins by microbeta scintillation counting relative to control; format: functional, cell membranes
[5] = Intrinsic clearance in human liver microsomes assessed per mg protein at 1 uM up to 45 mins by LC/MS analysis; format: ADME, Microsome; details: read-out: CLH
[6] = Intrinsic clearance in rat liver microsomes assessed per mg protein at 1 uM up to 45 mins by LC/MS analysis; format: ADME, Microsome; details: read-out: CLH
Cytochrome P450 2C8 = molecular target: T3, Cytochrome P450 2C8 (Homo sapiens, UniProt P10632); test: Inhibition of human recombinant CYP2C8 incubated for 15 mins prior to substrate addition measured after 30 mins by spectrophotometry; format: ADME
T3 sequence (P10632 whole entry): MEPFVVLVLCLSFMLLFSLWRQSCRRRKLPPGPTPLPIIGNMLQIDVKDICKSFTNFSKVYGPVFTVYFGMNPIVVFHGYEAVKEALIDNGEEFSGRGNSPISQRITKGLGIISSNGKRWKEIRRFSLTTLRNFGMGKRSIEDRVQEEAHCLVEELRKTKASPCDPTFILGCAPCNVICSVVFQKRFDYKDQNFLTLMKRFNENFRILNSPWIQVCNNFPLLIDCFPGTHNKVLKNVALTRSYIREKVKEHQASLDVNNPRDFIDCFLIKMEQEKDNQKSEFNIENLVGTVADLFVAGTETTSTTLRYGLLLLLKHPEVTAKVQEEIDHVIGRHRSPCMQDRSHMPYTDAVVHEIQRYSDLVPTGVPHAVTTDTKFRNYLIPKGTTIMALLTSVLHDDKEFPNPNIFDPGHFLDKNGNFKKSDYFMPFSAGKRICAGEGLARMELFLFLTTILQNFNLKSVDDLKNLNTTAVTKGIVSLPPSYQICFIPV

Cytochrome P450 2C9 = Cytochrome P450 2C9 (Homo sapiens, UniProt P11712); test: Inhibition of human recombinant CYP2C9 incubated for 15 mins prior to substrate addition measured after 30 mins by spectrophotometry; format: ADME
Cytochrome P450 2C19 = Cytochrome P450 2C19 (Homo sapiens, UniProt P33261); test: Inhibition of human recombinant CYP2C19 incubated for 15 mins prior to substrate addition measured after 30 mins by spectrophotometry; format: ADME
Sequence of Cytochrome P450 2C19 (P33261 whole entry): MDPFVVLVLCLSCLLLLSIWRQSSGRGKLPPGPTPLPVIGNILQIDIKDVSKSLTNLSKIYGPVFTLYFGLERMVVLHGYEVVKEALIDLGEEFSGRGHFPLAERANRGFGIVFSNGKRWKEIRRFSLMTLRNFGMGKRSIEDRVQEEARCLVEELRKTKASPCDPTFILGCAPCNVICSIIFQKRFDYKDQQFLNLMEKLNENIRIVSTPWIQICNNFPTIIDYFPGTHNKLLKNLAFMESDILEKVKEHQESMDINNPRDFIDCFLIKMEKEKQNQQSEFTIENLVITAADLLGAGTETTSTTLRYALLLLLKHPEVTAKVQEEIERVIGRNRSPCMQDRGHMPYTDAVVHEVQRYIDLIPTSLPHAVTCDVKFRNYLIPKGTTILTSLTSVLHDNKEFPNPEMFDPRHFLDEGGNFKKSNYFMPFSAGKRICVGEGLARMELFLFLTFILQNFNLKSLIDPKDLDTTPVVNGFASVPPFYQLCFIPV

Sequence of Cytochrome P450 2C9 (P11712 whole entry): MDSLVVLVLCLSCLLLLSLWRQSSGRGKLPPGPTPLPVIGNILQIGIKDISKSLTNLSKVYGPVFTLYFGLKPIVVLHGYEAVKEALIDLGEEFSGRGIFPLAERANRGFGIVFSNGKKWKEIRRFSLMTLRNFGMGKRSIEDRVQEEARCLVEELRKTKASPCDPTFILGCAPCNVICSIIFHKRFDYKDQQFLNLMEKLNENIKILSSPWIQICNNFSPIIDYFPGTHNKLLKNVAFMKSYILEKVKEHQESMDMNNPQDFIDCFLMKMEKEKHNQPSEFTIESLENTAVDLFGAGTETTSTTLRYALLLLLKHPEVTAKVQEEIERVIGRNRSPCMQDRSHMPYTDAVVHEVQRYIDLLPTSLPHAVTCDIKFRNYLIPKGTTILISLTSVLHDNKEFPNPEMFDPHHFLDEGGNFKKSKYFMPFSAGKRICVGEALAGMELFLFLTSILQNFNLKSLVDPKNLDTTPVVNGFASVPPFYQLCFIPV

CCCCC(=O)N(Cc1cccc(OC)c1)c1cccc(-c2nnn[nH]2)c1
Ki [1]: 44 nM

CS(=O)(=O)c1ccc(CN(C(=O)c2ccccc2)c2cc(F)cc(-c3nnn[nH]3)c2)cc1
Ki [1]: 2.2 nM

CS(=O)(=O)c1ccc(CN(C(=O)C2CCOCC2)c2cc(F)cc(-c3nnn[nH]3)c2)cc1
Ki [1]: 28 nM

CCCCC(=O)N(Cc1ccc2cnccc2c1)c1cccc(-c2nnn[nH]2)c1
Ki [1]: 330 nM

CCC(=O)N(Cc1cccc(F)c1)c1cccc(-c2nnn[nH]2)c1
Ki [1]: 1400 nM

CCC(=O)N(Cc1ccccc1F)c1cccc(-c2nnn[nH]2)c1
Ki [1]: 950 nM

C#Cc1cccc(CN(C(C)=O)c2cc(-c3nnn[nH]3)ccc2F)c1
Ki [1]: 140 nM

CCCCC(=O)N(Cc1ccc(OC)cc1)c1cc(Cl)cc(-c2nnn[nH]2)c1
Ki [1]: 3.6 nM
Emax [2]: -10%
IC50 [3]: 10 nM
inhibition [4]: 110%

CC(C)CC(=O)N(Cc1ccc(S(C)(=O)=O)cc1)c1cc(F)cc(-c2nnn[nH]2)c1
Ki [1]: 3.2 nM
Emax [2]: inactive
IC50 [3]: 46 nM
inhibition [4]: 85%
microsomal CLint at 1 µM [5]: 17 µL/min/mg
microsomal CLint at 1 µM [6]: 17 µL/min/mg
IC50 (Cytochrome P450 2C8): 79 nM
IC50 (Cytochrome P450 2C9): 1700 nM
IC50 (Cytochrome P450 2C19): 7500 nM

CCC(=O)N(Cc1cccc(O)c1)c1cc(F)cc(-c2nnn[nH]2)c1
Emax [2]: -17%
inhibition [4]: 106%
microsomal CLint at 1 µM [5]: 55 µL/min/mg
microsomal CLint at 1 µM [6]: 10 µL/min/mg
IC50 (Cytochrome P450 2C8): 970 nM
IC50 (Cytochrome P450 2C9): 2000 nM
IC50 (Cytochrome P450 2C19): 3700 nM

CCCCC(=O)N(Cc1ccc2c(c1)OCCO2)c1cc(F)cc(-c2nnn[nH]2)c1
Ki [1]: 2 nM
Emax [2]: -15%
IC50 [3]: 2.8 nM
inhibition [4]: 102%

CCCC(=O)N(Cc1ccc2c(c1)OCCO2)c1cc(-c2nnn[nH]2)ccc1F
Ki [1]: 4.9 nM

CS(=O)(=O)c1ccc(CN(C(=O)c2ccncc2)c2cc(F)cc(-c3nnn[nH]3)c2)cc1
Ki [1]: 17 nM

CCCCC(=O)N(Cc1ccc2c(c1)OCCO2)c1cccc(-c2nnn[nH]2)c1
Ki [1]: 7 nM
microsomal CLint at 1 µM [5]: > 1000 µL/min/mg
microsomal CLint at 1 µM [6]: 125 µL/min/mg
IC50 (Cytochrome P450 2C8): 570 nM
IC50 (Cytochrome P450 2C9): 640 nM
IC50 (Cytochrome P450 2C19): 680 nM

CCCCC(=O)N(Cc1ccc(OC)cc1)c1cccc(-c2nnn[nH]2)c1
Ki [1]: 50 nM
microsomal CLint at 1 µM [5]: > 1000 µL/min/mg
microsomal CLint at 1 µM [6]: 43 µL/min/mg
IC50 (Cytochrome P450 2C8): 320 nM
IC50 (Cytochrome P450 2C9): 840 nM
IC50 (Cytochrome P450 2C19): 260 nM

CCCCC(=O)N(Cc1cc2ccccc2o1)c1cc(-c2nnn[nH]2)ccc1F
Ki [1]: 7.1 nM

CCC(=O)N(Cc1cccc(C)c1)c1cccc(-c2nnn[nH]2)c1
Ki [1]: 580 nM

CS(=O)(=O)c1ccc(CN(C(=O)Cc2ccccc2)c2cc(F)cc(-c3nnn[nH]3)c2)cc1
Ki [1]: 0.9 nM
Emax [2]: -10%
IC50 [3]: 3.7 nM
inhibition [4]: 94%
microsomal CLint at 1 µM [5]: 28 µL/min/mg
microsomal CLint at 1 µM [6]: 20 µL/min/mg
IC50 (Cytochrome P450 2C8): 50 nM
IC50 (Cytochrome P450 2C9): 290 nM
IC50 (Cytochrome P450 2C19): 170 nM

CCCCC(=O)N(Cc1cccc(OC)c1)c1cc(F)cc(-c2nnn[nH]2)c1
Ki [1]: 3 nM

CCC(=O)N(Cc1ccc2c(c1)OCO2)c1cccc(-c2nnn[nH]2)c1
Ki [1]: 130 nM

CCCCC(=O)N(Cc1ccc(OC)cc1)c1cc(F)cc(-c2nnn[nH]2)c1
Ki [1]: 3 nM

CC(C)CC(=O)N(Cc1ccc2c(c1)OCCO2)c1cc(-c2nnn[nH]2)ccc1F
Ki [1]: 5.6 nM

CCC(=O)N(Cc1ccccc1)c1cccc(-c2nnn[nH]2)c1
Ki [1]: 1800 nM

CCCCC(=O)N(Cc1ccc2ccccc2c1)c1cccc(-c2nnn[nH]2)c1
Ki [1]: 39 nM

CCC(=O)N(Cc1cccc(OC)c1)c1cc(F)cc(-c2nnn[nH]2)c1
Ki [1]: 8.2 nM
Emax [2]: -11%
IC50 [3]: 64 nM
inhibition [4]: 107%

CS(=O)(=O)c1ccc(CN(C(=O)c2cccnc2)c2cc(F)cc(-c3nnn[nH]3)c2)cc1
Ki [1]: 4 nM

CCCCC(=O)N(Cc1cccc(OC)c1)c1cccc(C(=O)O)c1
Ki [1]: 8000 nM

CCCCC(=O)N(Cc1cccs1)c1cccc(-c2nnn[nH]2)c1
Ki [1]: 620 nM

CCC(=O)N(Cc1ccc(O)cc1)c1cc(F)cc(-c2nnn[nH]2)c1
Ki [1]: 22 nM

CCC(=O)N(Cc1ccc2c(c1)OCCO2)c1cccc(-c2nnn[nH]2)c1
Ki [1]: 42 nM

CCCCC(=O)N(Cc1ccc2c(c1)OCCO2)c1cccc(CC(=O)O)c1
Ki [1]: 4300 nM

CCC(=O)N(Cc1cccc(OC(C)C)c1)c1cc(F)cc(-c2nnn[nH]2)c1
Ki [1]: 6.4 nM
microsomal CLint at 1 µM [5]: 1700 µL/min/mg
microsomal CLint at 1 µM [6]: 30 µL/min/mg
IC50 (Cytochrome P450 2C8): 470 nM
IC50 (Cytochrome P450 2C9): 340 nM
IC50 (Cytochrome P450 2C19): 900 nM

Cc1ccc(CCC(=O)N(Cc2ccc(S(C)(=O)=O)cc2)c2cc(F)cc(-c3nnn[nH]3)c2)cc1
Ki [1]: 2.5 nM

C#Cc1cccc(CN(C(=O)CCCC)c2cc(-c3nnn[nH]3)ccc2F)c1
Ki [1]: 10 nM

CCCCC(=O)N(Cc1ccc2ccccc2c1)c1cc(-c2nnn[nH]2)ccc1F
Ki [1]: 18 nM

CCC(=O)N(Cc1ccc(S(C)(=O)=O)cc1)c1cccc(-c2nnn[nH]2)c1
Ki [1]: 69 nM

CCC(=O)N(Cc1ccc(S(=O)(=O)C(F)(F)F)cc1)c1cc(F)cc(-c2nnn[nH]2)c1
Ki [1]: 5.2 nM

CS(=O)(=O)c1ccc(CN(C(=O)C2CCCC2)c2cc(F)cc(-c3nnn[nH]3)c2)cc1
Ki [1]: 5.4 nM
Emax [2]: 7%
IC50 [3]: 57 nM
inhibition [4]: 80%
microsomal CLint at 1 µM [5]: 92 µL/min/mg
microsomal CLint at 1 µM [6]: 40 µL/min/mg
IC50 (Cytochrome P450 2C8): 220 nM
IC50 (Cytochrome P450 2C9): 7400 nM
IC50 (Cytochrome P450 2C19): 12000 nM

CCC(=O)N(Cc1ccc(OC)cc1)c1cc(F)cc(-c2nnn[nH]2)c1
Ki [1]: 7.6 nM

CCC(=O)N(Cc1ccc2c(c1)OCCO2)c1cc(-c2nnn[nH]2)ccc1F
Ki [1]: 11 nM

CCCCC(=O)N(Cc1ccc2c(c1)OCCO2)c1cc(-c2nnn[nH]2)ccc1F
Ki [1]: 3.3 nM

CCCC(=O)N(Cc1ccc2c(c1)OCCO2)c1cccc(-c2nnn[nH]2)c1
Ki [1]: 12 nM

CCC(=O)N(Cc1ccc(F)cc1)c1cccc(-c2nnn[nH]2)c1
Ki [1]: 1200 nM

CCC(=O)N(Cc1ccc(OC)cc1)c1cccc(-c2nnn[nH]2)c1
Ki [1]: 220 nM

CC(C)C(=O)N(Cc1ccc(S(C)(=O)=O)cc1)c1cc(F)cc(-c2nnn[nH]2)c1
Ki [1]: 17 nM

CCCCC(=O)N(Cc1ccc2c(c1)OCCO2)c1cc(-c2nnn[nH]2)c(F)cc1F
Ki [1]: 45 nM

CCC(=O)N(Cc1ccc(S(C)(=O)=O)cc1)c1cc(F)cc(-c2nnn[nH]2)c1
Ki [1]: 3.1 nM
microsomal CLint at 1 µM [5]: < 10 µL/min/mg
microsomal CLint at 1 µM [6]: < 10 µL/min/mg
IC50 (Cytochrome P450 2C8): 54 nM
IC50 (Cytochrome P450 2C9): > 20000 nM
IC50 (Cytochrome P450 2C19): 150 nM

CCC(=O)N(Cc1ccc2ccccc2n1)c1cc(F)cc(-c2nnn[nH]2)c1
Ki [1]: 56 nM

CCC(=O)N(Cc1cccc(OC)c1)c1cccc(-c2nnn[nH]2)c1
Ki [1]: 360 nM
